Target: T1, angiotensin II receptor subtype 1 (AT1) (Oryctolagus cuniculus, UniProt P34976)
T1 construct: from adrenal glands in rabbits; from tissue; host or cells: adrenal glands of rabbits
T1 sequence (P34976 1-359): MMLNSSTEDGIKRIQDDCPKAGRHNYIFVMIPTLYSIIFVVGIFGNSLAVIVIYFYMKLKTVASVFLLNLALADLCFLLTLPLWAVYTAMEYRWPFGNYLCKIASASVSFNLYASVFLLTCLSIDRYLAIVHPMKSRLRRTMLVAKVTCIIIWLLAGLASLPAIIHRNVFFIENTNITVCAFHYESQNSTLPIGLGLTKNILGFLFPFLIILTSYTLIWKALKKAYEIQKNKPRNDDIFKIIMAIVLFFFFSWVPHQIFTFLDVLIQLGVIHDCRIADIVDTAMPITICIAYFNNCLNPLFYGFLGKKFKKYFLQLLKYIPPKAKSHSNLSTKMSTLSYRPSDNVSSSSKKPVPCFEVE
Assay: Binding assay, angiotensin II receptor subtype 1 (AT1)
Design: species or system rabbits
Procedure: In this Example, a binding assay was carried out. That is, the affinity to the angiotensin II receptor subtype 1 orsubtype 2 was evaluated in accordance with the method described in Biochem. Pharmacol., 33, 4057-4062 (1984).
Specifically, the measurement of the total binding in the presence of each drug was performed as follows:
A mixture (final volume=0.25 ml) of a drug in a given concentration (the drug was dissolved in DMSO, and diluted to a double volume with a buffer attached to a drug discovery system to prepare a sample for the assay; 0.025 ml), a tracer (0.025 ml), and receptors (0.2 ml) was incubated [in the case of the angiotensin II receptor subtype 1 (AT1), at room temperature for 3 hours, and in the case of the subtype 2 (AT2), at 37° C. for 1 hour]. Then, the reaction mixture was filtered with suction (a GF/C filter was used in AT1, and a GF/B filter was used in AT2). The filter papers after filtration with suction (the tracer bound to the receptors) were counted by a γ-well counter (ARC-500, Aloka). The non-specific bindings were measured by repeating the above method, except that a large excess amount of a displacer was added. The specific binding of the drug in the given concentration was calculated by subtracting the non-specific binding from the total binding, respectively.
tracer: ^3 H-angiotensin II

Structure (SMILES): CCOc1nc2ccc(C(=O)N3CCOCC3)cc2n1Cc1ccc(C(=O)OCCN(C)C)cc1 [Compound No. 13, 2-ethoxy-1-[[4'-(2"-N,N-dimethylaminoethoxycarbonyl)phenyl]methyl]-1H-benzimidazole-6-carboxylic acid morpholide]
- inhibitory effect / binding activity / antagonism at angiotensin II receptor: do not substantially exhibit a conventional angiotensin II receptor antagonism

Structure (SMILES): CCOc1nc2ccc(C(=O)N3CCCCC3)cc2n1Cc1ccc(C(=O)OCCN2CCOCC2)cc1 [Compound No. 57, 2-ethoxy-1-[[4'-(2"-morpholinoethoxycarbonyl)phenyl]methyl]-1H-benzimidazole-6-carboxylic acid piperidinamide]
- inhibitory effect / binding activity / antagonism at angiotensin II receptor: do not substantially exhibit a conventional angiotensin II receptor antagonism

Reference: patent publication US6242445A, “Benzimidazole derivative” (Kureha Chemical Industry Co., Ltd., priority 1998, dated 2001)
